Data on two compounds can be found in patent publication US7402606B2, “Derivatives of 1-(oxoaminoacetyl) pentylcarbamate as cathepsin K inhibitors for the treatment of bone loss” (SmithKline Beecham Corporation, priority 2002, dated 2008).

The target of experiment [1] is T1, human cathepsin K (Homo sapiens, UniProt P43235).
T1 construct: The proform of cathepsin K was converted to mature cathepsin K by brief exposure to pH 4; made in house; host or cells: baculovirus; Trichoplusia ni High Five cells (virus raised in Sf-9)
T1 sequence (P43235 115-329): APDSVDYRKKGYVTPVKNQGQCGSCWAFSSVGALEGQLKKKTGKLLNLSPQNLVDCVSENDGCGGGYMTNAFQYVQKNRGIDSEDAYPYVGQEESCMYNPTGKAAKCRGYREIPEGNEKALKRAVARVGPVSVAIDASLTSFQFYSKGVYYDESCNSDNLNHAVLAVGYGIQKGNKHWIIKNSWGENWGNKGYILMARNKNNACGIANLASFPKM
Nature of the experiment: Cathepsin K inhibition assay, human recombinant enzyme, fluorogenic substrate Cbz-Phe-Arg-AMC. As to conditions: read-out: h Cat K IC50. It is filed as biochemical. In outline:
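Recombinant human cathepsin K (baculovirus/insect-cell proform, activated at pH 4 with 5 mM L-cysteine) assayed with 10 μM Cbz-Phe-Arg-AMC, 10% DMSO, 30 °C.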

In experiment [2] the target is human cathepsin S (Homo sapiens, UniProt P25774). Nature of the experiment: Cathepsin S inhibition assay, human recombinant enzyme, Cbz-Val-Val-Arg-AMC. In kind it is biochemical. The settings on record: Table 2, human cathepsin S; read-out: h Cat S IC50. The method, then: All assays for cathepsin K were carried out with human and rat recombinant enzyme. Assays for cathepsins S ? V were also carried out with human recombinant enzyme. Assays for human cathepsins B, H, and L were carried out with enzyme, purchased from Athens Research and Technology, Inc., prepared from human liver tissue. Standard assay conditions for the determination of kinetic constants used a fluorogenic peptide substrate, typically (5S,8S)-13-amino-5-benzyl-13-imino-3-methylene-N-(4-methyl-2-oxo-2H-chromen-7-yl)-6-oxo-1-phenyl-2-oxa-4,7,12triazatridecane-8-carboxamide (Cbz-Phe-Arg-AMC), and were determined in 100 mM sodium acetate at pH 5.5 containing 10 mM dithiothreitol and 120 mM sodium chloride. […]
All assays contained 10% dimethyl sulfoxide. […] Product fluorescence (excitation at 360 nm; emission at 440 nm, (except cathepsin H which used excitation at 340 nm; emission at 420 nm)) was monitored with a PerSeptive Biosystems Cytofluor II fluorescence plate reader. […]
Potential inhibitors were evaluated using the progress curve method. […] For those compounds whose progress curves were linear, the enzymatic activity (RATE) was plotted against the concentration of test compound, including inhibitor concentration of zero ([I]=0), and the IC50 determined from a fit of equation 1 to the data, RATE=Vmax/(1+([I]/IC50)) (1) where Vmax is the best fit estimate of the maximal enzymatic activity. […]

Like-named read-outs stand apart in the source and are kept apart here.

Chain of human cathepsin S (P25774 115-331): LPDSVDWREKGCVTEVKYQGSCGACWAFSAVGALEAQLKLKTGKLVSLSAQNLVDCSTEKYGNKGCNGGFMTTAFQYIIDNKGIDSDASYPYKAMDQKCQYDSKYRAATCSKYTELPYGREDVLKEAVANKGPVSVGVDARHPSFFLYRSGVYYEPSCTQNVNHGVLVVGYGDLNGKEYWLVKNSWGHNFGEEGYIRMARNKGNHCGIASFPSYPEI

Regarding `CCCC[C@H](NC(=O)O[C@@H]1CN(C(=O)Nc2ccc(C(F)(F)F)cc2)CC1(C)C)C(=O)C(=O)Nc1ccn[nH]1` [Example 71, (3S)-4,4-dimethyl-1-{[4-(trifluoromethyl)anilino]carbonyl}pyrrolidinyl (1S)-1-[oxo(1H-pyrazol-5-ylamino)acetyl]pentylcarbamate], the half-maximal inhibitory concentration (IC50) (as a rule, the concentration at which inhibition is half-maximal) in experiment [1] (Table 1, human cathepsin K) is 0.1 to 1 nM; in experiment [1] (Table 2, human cathepsin K), 0.1 to 1 nM; in experiment [2], 1 to 10 nM.
On to `CCCC[C@H](NC(=O)O[C@@H]1CN(c2nnc(C(F)(F)F)s2)CC1(C)C)C(=O)C(=O)Nc1ccn[nH]1` [Example 82, (3S)-4,4-Dimethyl-1-[5-(trifluoromethyl)-1,3,4-thiadiazol-2-yl]pyrrolidinyl-(1S)-1-[oxo(1H-pyrazol-5-ylamino)acetyl]pentylcarbamate], for which the IC50 in experiment [1] (Table 1, human cathepsin K) is 0.1 to 1 nM; in experiment [1] (Table 2, human cathepsin K), 0.1 to 1 nM; in experiment [2] it was 10 to 100 nM.
